The values below come from PubChem BioAssay AID288 (DTP/NCI, 2004).

The assay concerns BDF1 mice, M5076 sarcoma s.c., survival/tumor T/C. The assay is described as follows: NCI In Vivo Anticancer Drug Screen. Data for tumor model Sarcoma M5076 (subcutaneous) in B6D2F1 (BDF1) mice. As for the experimental part:
The antitumor activity of compounds was measured in mice bearing transplantable tumors. Survival or tumor size were measured and the results are expressed as the measurement made in the treated group (T) divided by the measurement made in the vehicle treated control group (C). The tumor model used in this assay is Sarcoma M5076 (subcutaneous) in B6D2F1 (BDF1) mice

Where “and” joins values, the source holds several entries; their conditions need not be identical. Identical values can stand only once. Inconclusive results are not listed. Numbered stars: 1 amine (or outer) side, 2 acyl side, 3 side chain; on linkers, the order of the positions; unused ones are H or OH. Bridge positions count the residues as written; N and C are the ends. Square brackets hold non-standard residues; d marks the D form. Peptide text beside a SMILES is read from it. I, II: the chains in the order shown. * marks the point of attachment. ξ: configuration not given here. Quinaldoyl(3-OH,6-OMe) = COc1ccc2nc(C(=O)*)c(O)cc2c1; X1 = CCC(=O)OC1CC=NN([*:1])C1C(=O)[*:2]; X2 = CC(=O)OC1CC=NN([*:1])C1C(=O)[*:2]; ξNMeVal(3-OH) = CNC(C(=O)O)C(C)(C)O; Sar = CNCC(=O)O

Regarding `CC1(C)N=C(N)N=C(N)N1c1ccc(CCCCc2ccc(S(=O)(=O)F)cc2Cl)c(Cl)c1`, the T/C is, setting by setting: (endpoint: median survival time, dose: 1.8 mg/kg/injection, schedule: Q01DX005 (iv), vehicle: other, higher = longer survival) 97 % of control; (endpoint: median survival time, dose: 3.7 mg/kg/injection, schedule: Q01DX001 (iv), vehicle: other, higher = longer survival) 107 % of control; (endpoint: median survival time, dose: 3.7 mg/kg/injection, schedule: Q01DX005 (iv), vehicle: other, higher = longer survival) 97 % of control; (endpoint: median survival time, dose: 5.18 mg/kg/injection, schedule: Q01DX009 (ip), vehicle: other, higher = longer survival) 162 % of control; (endpoint: median survival time, dose: 5.4 mg/kg/injection, schedule: Q01DX009 (ip), vehicle: other, higher = longer survival) 151 % of control; (endpoint: median survival time, dose: 7.5 mg/kg/injection, schedule: Q01DX001 (iv), vehicle: other, higher = longer survival) 91 % of control. Besides, the T/C (endpoint: median survival time, dose: 7.5 mg/kg/injection, schedule: Q01DX005 (iv), vehicle: other, higher = longer survival) is 114 % of control; the T/C (endpoint: median survival time, dose: 8.0 mg/kg/injection, schedule: Q01DX009 (ip), vehicle: other, higher = longer survival) was 151 % of control; the T/C (endpoint: median survival time, dose: 8.64 mg/kg/injection, schedule: Q01DX009 (ip), vehicle: other, higher = longer survival) is 176 % of control; the T/C (endpoint: median survival time, dose: 10.0 mg/kg/injection, schedule: Q01DX009 (ip), vehicle: saline with Tween-80, higher = longer survival) was 150 % of control; the T/C (endpoint: median survival time, dose: 14.4 mg/kg/injection, schedule: Q01DX009 (ip), vehicle: other, higher = longer survival) is 190 % of control; the T/C (endpoint: median survival time, dose: 15.0 mg/kg/injection, schedule: Q01DX001 (ip), vehicle: other, higher = longer survival) is 110 % of control. Moreover, the T/C by setting is: (endpoint: median survival time, dose: 15.0 mg/kg/injection, schedule: Q01DX005 (ip), vehicle: other, higher = longer survival) 124 % of control; (endpoint: median survival time, dose: 15.0 mg/kg/injection, schedule: Q01DX009 (oral), vehicle: other, higher = longer survival) 89 % of control; (endpoint: median survival time, dose: 20.0 mg/kg/injection, schedule: Q01DX009 (ip), vehicle: other, higher = longer survival) 155 % of control; (endpoint: median survival time, dose: 20.0 mg/kg/injection, schedule: Q01DX009 (ip), vehicle: saline with Tween-80, higher = longer survival) 177 % of control; (endpoint: median survival time, dose: 27.0 mg/kg/injection, schedule: Q01DX009 (ip), vehicle: saline with Tween-80, higher = longer survival) 168 % of control; (endpoint: median survival time, dose: 30.0 mg/kg/injection, schedule: Q01DX001 (ip), vehicle: other, higher = longer survival) 103 % of control. Further, the T/C was 110 % of control (endpoint: median survival time, dose: 30.0 mg/kg/injection, schedule: Q01DX001 (oral), vehicle: other, higher = longer survival); 97 % of control (endpoint: median survival time, dose: 30.0 mg/kg/injection, schedule: Q01DX005 (oral), vehicle: other, higher = longer survival); 169 % of control (endpoint: median survival time, dose: 30.0 mg/kg/injection, schedule: Q01DX009 (ip), vehicle: other, higher = longer survival); 120 % of control (endpoint: median survival time, dose: 30.0 mg/kg/injection, schedule: Q01DX009 (oral), vehicle: other, higher = longer survival); 163 % of control and 217 % of control and 232 % of control (endpoint: median survival time, dose: 40.0 mg/kg/injection, schedule: Q01DX009 (ip), vehicle: saline with Tween-80, higher = longer survival); 111 % of control (endpoint: median survival time, dose: 60.0 mg/kg/injection, schedule: Q01DX001 (ip), vehicle: other, higher = longer survival). Further, the T/C (endpoint: median survival time, dose: 60.0 mg/kg/injection, schedule: Q01DX001 (oral), vehicle: other, higher = longer survival) is 97 % of control; the T/C (endpoint: median survival time, dose: 60.0 mg/kg/injection, schedule: Q01DX005 (oral), vehicle: other, higher = longer survival) is 117 % of control; the T/C (endpoint: median survival time, dose: 60.0 mg/kg/injection, schedule: Q01DX009 (ip), vehicle: saline with Tween-80, higher = longer survival) is 204 % of control and 239 % of control; the T/C (endpoint: median survival time, dose: 60.0 mg/kg/injection, schedule: Q01DX009 (oral), vehicle: other, higher = longer survival) is 114 % of control; the T/C (endpoint: median survival time, dose: 62.0 mg/kg/injection, schedule: Q01DX009 (ip), vehicle: saline with Tween-80, higher = longer survival) is 255 % of control; the T/C (endpoint: median survival time, dose: 89.0 mg/kg/injection, schedule: Q01DX009 (ip), vehicle: saline with Tween-80, higher = longer survival) was 224 % of control. Further, the T/C is 97 % of control (endpoint: median survival time, dose: 120.0 mg/kg/injection, schedule: Q01DX001 (oral), vehicle: other, higher = longer survival); 116 % of control (endpoint: median survival time, dose: 120.0 mg/kg/injection, schedule: Q01DX005 (oral), vehicle: other, higher = longer survival); 104 % of control (endpoint: median survival time, dose: 120.0 mg/kg/injection, schedule: Q01DX009 (oral), vehicle: other, higher = longer survival); 123 % of control (endpoint: median survival time, dose: 240.0 mg/kg/injection, schedule: Q01DX001 (ip), vehicle: other, higher = longer survival); 109 % of control (endpoint: median survival time, dose: 240.0 mg/kg/injection, schedule: Q01DX001 (oral), vehicle: other, higher = longer survival); 117 % of control (endpoint: median survival time, dose: 240.0 mg/kg/injection, schedule: Q01DX005 (oral), vehicle: other, higher = longer survival). Further, the T/C is 110 % of control (endpoint: median survival time, dose: 240.0 mg/kg/injection, schedule: Q01DX009 (oral), vehicle: other, higher = longer survival); 100 % of control (endpoint: median survival time, dose: 480.0 mg/kg/injection, schedule: Q01DX001 (oral), vehicle: other, higher = longer survival); 109 % of control (endpoint: median survival time, dose: 480.0 mg/kg/injection, schedule: Q01DX005 (oral), vehicle: other, higher = longer survival); 124 % of control (endpoint: median survival time, dose: 480.0 mg/kg/injection, schedule: Q01DX009 (oral), vehicle: other, higher = longer survival).

On to `CN(C)c1nc(N(C)C)nc(N(C)C)n1`, for which the T/C runs as follows: (endpoint: median survival time, dose: 44.0 mg/kg/injection, schedule: Q04DX006 (ip), vehicle: saline with Tween-80, higher = longer survival) 97 % of control; (endpoint: median survival time, dose: 88.0 mg/kg/injection, schedule: Q04DX006 (ip), vehicle: saline with Tween-80, higher = longer survival) 108 % of control; (endpoint: median survival time, dose: 176.0 mg/kg/injection, schedule: Q02DX033 (ip), vehicle: saline with Tween-80, higher = longer survival) 189 % of control; (endpoint: median survival time, dose: 176.0 mg/kg/injection, schedule: Q04DX006 (ip), vehicle: saline with Tween-80, higher = longer survival) 120 % of control; (endpoint: median survival time, dose: 352.0 mg/kg/injection, schedule: Q04DX006 (ip), vehicle: saline with Tween-80, higher = longer survival) 112 % of control; (endpoint: median tumor weight (est.), dose: 30.0 mg/kg/injection, schedule: Q02DX011 (ip), vehicle: saline with Tween-80, higher = larger tumour) 110 % of control. For the same compound, the T/C by setting is: (endpoint: median tumor weight (est.), dose: 60.0 mg/kg/injection, schedule: Q02DX011 (ip), vehicle: saline with Tween-80, higher = larger tumour) 54 % of control; (endpoint: median tumor weight (est.), dose: 120.0 mg/kg/injection, schedule: Q02DX011 (ip), vehicle: saline with Tween-80, higher = larger tumour) 17 % of control.

In the case of `C1CCC2OCCOCCOCCOCCOC2C1` (stereo not given), the T/C (endpoint: median survival time, dose: 50.0 mg/kg/injection, schedule: Q01DX009 (ip), vehicle: saline, higher = longer survival) was 111 % of control; the T/C (endpoint: median survival time, dose: 100.0 mg/kg/injection, schedule: Q01DX009 (ip), vehicle: saline, higher = longer survival) was 113 % of control; the T/C (endpoint: median tumor weight (est.), dose: 50.0 mg/kg/injection, schedule: Q01DX009 (ip), vehicle: saline, higher = larger tumour) was 66 % of control; the T/C (endpoint: median tumor weight (est.), dose: 100.0 mg/kg/injection, schedule: Q01DX009 (ip), vehicle: saline, higher = larger tumour) was 75 % of control.

On to `O=C1N=C(Oc2ccccc2)SC1=O`, for which the T/C (endpoint: median survival time, dose: 50.0 mg/kg/injection, schedule: Q04DX003 (ip), vehicle: saline with Tween-80, higher = longer survival) was 106 % of control.

For `CCC(=O)OC1CC=NN2C(=O)C(NC(=O)c3nc4ccc(OC)cc4cc3O)COC(=O)C(C(C)(C)O)N(C)C(=O)CN(C)C(=O)CNC(=O)C3C(OC(C)=O)CC=NN3C(=O)C(NC(=O)c3nc4ccc(OC)cc4cc3O)COC(=O)C(C(C)(C)O)N(C)C(=O)CN(C)C(=O)CNC(=O)C12` (stereo not given) (I: {Quinaldoyl(3-OH,6-OMe)}-S[X1]G[Sar][ξNMeVal(3-OH)] / II: {Quinaldoyl(3-OH,6-OMe)}-S[X2]G[Sar][ξNMeVal(3-OH)]; ester I:1-II:C, I:C-II:1; configuration not given here), the T/C runs as follows: (endpoint: median survival time, dose: 18.8 micrograms/kg/injection, schedule: Q01DX009 (ip), vehicle: Klucel (hydroxypropylcellulose) (HPC), higher = longer survival) 89 % of control; (endpoint: median tumor weight (est.), dose: 18.8 micrograms/kg/injection, schedule: Q01DX009 (ip), vehicle: DMSO, higher = larger tumour) 86 % of control.

With `[N-]=[N+]=CC(=O)CCC(N)C(=O)O` (stereo not given), the T/C by setting is: (endpoint: median survival time, dose: 1.0 mg/kg/injection, schedule: Q04DX005 (ip), vehicle: saline, higher = longer survival) 150 % of control and 159 % of control; (endpoint: median survival time, dose: 2.0 mg/kg/injection, schedule: Q04DX005 (ip), vehicle: saline, higher = longer survival) 166 % of control and 167 % of control; (endpoint: median survival time, dose: 4.0 mg/kg/injection, schedule: Q04DX005 (ip), vehicle: saline, higher = longer survival) 181 % of control and 183 % of control; (endpoint: median survival time, dose: 8.0 mg/kg/injection, schedule: Q04DX005 (ip), vehicle: saline, higher = longer survival) 186 % of control and 188 % of control; (endpoint: median survival time, dose: 16.0 mg/kg/injection, schedule: Q04DX005 (ip), vehicle: saline, higher = longer survival) 98 % of control.
